PubChem BioAssay (NCI)
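Test compounds were applied to cells in 96-well plates for 48 hours at 5 doses. The concentration for full growth arrest is given as TGI.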

Legend:
Assay in all cases: NCI tumour cell line growth inhibition, 48 h
786-0 renal = tested on: 786-0 renal
A498 renal = tested on: A498 renal
A549 NSCLC = tested on: A549 NSCLC
ACHN renal = tested on: ACHN renal
CCRF-CEM leukemia = tested on: CCRF-CEM leukemia
COLO 205 colon = tested on: COLO 205 colon
DU-145 prostate = tested on: DU-145 prostate
EKVX NSCLC = tested on: EKVX NSCLC
HCT-116 colon = tested on: HCT-116 colon
HCT-15 colon = tested on: HCT-15 colon
HOP-62 NSCLC = tested on: HOP-62 NSCLC
HS 578T breast = tested on: HS 578T breast
HT29 colon = tested on: HT29 colon
IGROV1 ovarian = tested on: IGROV1 ovarian
K-562 leukemia = tested on: K-562 leukemia
KM12 colon = tested on: KM12 colon
LOX IMVI melanoma = tested on: LOX IMVI melanoma
M14 melanoma = tested on: M14 melanoma
MALME-3M melanoma = tested on: MALME-3M melanoma
MCF7 breast = tested on: MCF7 breast
MDA-MB-231 breast = tested on: MDA-MB-231 breast
MDA-MB-435 = tested on: MDA-MB-435
MDA-N = tested on: MDA-N
MOLT-4 leukemia = tested on: MOLT-4 leukemia
NCI-H226 lung = tested on: NCI-H226 lung
NCI-H23 lung = tested on: NCI-H23 lung
NCI/ADR-RES ovarian = tested on: NCI/ADR-RES ovarian
OVCAR-3 ovarian = tested on: OVCAR-3 ovarian
OVCAR-4 ovarian = tested on: OVCAR-4 ovarian
OVCAR-5 ovarian = tested on: OVCAR-5 ovarian
OVCAR-8 ovarian = tested on: OVCAR-8 ovarian
PC-3 prostate = tested on: PC-3 prostate
RPMI-8226 leukemia = tested on: RPMI-8226 leukemia
SF-268 CNS = tested on: SF-268 CNS
SF-295 CNS = tested on: SF-295 CNS
SK-MEL-2 melanoma = tested on: SK-MEL-2 melanoma
SK-MEL-28 melanoma = tested on: SK-MEL-28 melanoma
SK-MEL-5 melanoma = tested on: SK-MEL-5 melanoma
SK-OV-3 ovarian = tested on: SK-OV-3 ovarian
SN12C renal = tested on: SN12C renal
SNB-19 CNS = tested on: SNB-19 CNS
SNB-75 CNS = tested on: SNB-75 CNS
SR leukemia = tested on: SR leukemia
SW-620 colon = tested on: SW-620 colon
TK-10 renal = tested on: TK-10 renal
U251 CNS = tested on: U251 CNS
UACC-257 melanoma = tested on: UACC-257 melanoma
UACC-62 melanoma = tested on: UACC-62 melanoma
UO-31 renal = tested on: UO-31 renal
BT-549 breast = tested on: BT-549 breast
CAKI-1 renal = tested on: CAKI-1 renal
HCC-2998 colon = tested on: HCC-2998 colon
NCI-H460 lung = tested on: NCI-H460 lung
SF-539 CNS = tested on: SF-539 CNS
T-47D breast = tested on: T-47D breast

## C=C[C@@H]1OC(=O)O[C@H]1CO
786-0 renal
  TGI: > 100 µM
A498 renal
  TGI: > 100 µM
A549 NSCLC
  TGI: > 100 µM
ACHN renal
  TGI: > 100 µM
CCRF-CEM leukemia
  TGI: > 100 µM
COLO 205 colon
  TGI: > 100 µM
DU-145 prostate
  TGI: > 100 µM
EKVX NSCLC
  TGI: > 100 µM
HCT-116 colon
  TGI: > 100 µM
HCT-15 colon
  TGI: > 100 µM
HOP-62 NSCLC
  TGI: > 100 µM
HS 578T breast
  TGI: > 100 µM
HT29 colon
  TGI: > 100 µM
IGROV1 ovarian
  TGI: > 100 µM
K-562 leukemia
  TGI: > 100 µM
KM12 colon
  TGI: > 100 µM
LOX IMVI melanoma
  TGI: > 100 µM
M14 melanoma
  TGI: > 100 µM
MALME-3M melanoma
  TGI: > 100 µM
MCF7 breast
  TGI: > 100 µM
MDA-MB-231 breast
  TGI: > 100 µM
MDA-MB-435
  TGI: > 100 µM
MDA-N
  TGI: > 100 µM
MOLT-4 leukemia
  TGI: > 100 µM
NCI-H226 lung
  TGI: > 100 µM
NCI-H23 lung
  TGI: > 100 µM
NCI/ADR-RES ovarian
  TGI: > 100 µM
OVCAR-3 ovarian
  TGI: > 100 µM
OVCAR-4 ovarian
  TGI: > 100 µM
OVCAR-5 ovarian
  TGI: > 100 µM
OVCAR-8 ovarian
  TGI: > 100 µM
PC-3 prostate
  TGI: > 100 µM
RPMI-8226 leukemia
  TGI: > 100 µM
SF-268 CNS
  TGI: > 100 µM
SF-295 CNS
  TGI: > 100 µM
SK-MEL-2 melanoma
  TGI: > 100 µM
SK-MEL-28 melanoma
  TGI: > 100 µM
SK-MEL-5 melanoma
  TGI: > 100 µM
SK-OV-3 ovarian
  TGI: > 100 µM
SN12C renal
  TGI: > 100 µM
SNB-19 CNS
  TGI: > 100 µM
SNB-75 CNS
  TGI: > 100 µM
SR leukemia
  TGI: > 100 µM
SW-620 colon
  TGI: > 100 µM
TK-10 renal
  TGI: > 100 µM
U251 CNS
  TGI: > 100 µM
UACC-257 melanoma
  TGI: > 100 µM
UACC-62 melanoma
  TGI: > 100 µM
UO-31 renal
  TGI: > 100 µM

## c1ccc2c(c1)ccc1nc(-c3ccc4c(c3)OCO4)c3c(c12)CCCC3
786-0 renal
  TGI: > 100 µM
A498 renal
  TGI: 72.9 µM
A549 NSCLC
  TGI: > 100 µM
ACHN renal
  TGI: > 100 µM
BT-549 breast
  TGI: > 100 µM
CAKI-1 renal
  TGI: > 100 µM
CCRF-CEM leukemia
  TGI: > 100 µM
COLO 205 colon
  TGI: 41.7 µM
EKVX NSCLC
  TGI: > 100 µM
HCC-2998 colon
  TGI: > 100 µM
HCT-116 colon
  TGI: > 100 µM
HCT-15 colon
  TGI: > 100 µM
HOP-62 NSCLC
  TGI: > 100 µM
HS 578T breast
  TGI: 28.5 µM
HT29 colon
  TGI: > 100 µM
K-562 leukemia
  TGI: > 100 µM
KM12 colon
  TGI: 24.2 µM
M14 melanoma
  TGI: > 100 µM
MALME-3M melanoma
  TGI: 63.2 µM
MCF7 breast
  TGI: > 100 µM
MDA-MB-231 breast
  TGI: 44.3 µM
MDA-MB-435
  TGI: 87.7 µM
MDA-N
  TGI: > 100 µM
MOLT-4 leukemia
  TGI: > 100 µM
NCI-H226 lung
  TGI: > 100 µM
NCI-H23 lung
  TGI: > 100 µM
NCI-H460 lung
  TGI: > 100 µM
NCI/ADR-RES ovarian
  TGI: > 100 µM
OVCAR-3 ovarian
  TGI: > 100 µM
OVCAR-4 ovarian
  TGI: 64.8 µM
OVCAR-5 ovarian
  TGI: > 100 µM
OVCAR-8 ovarian
  TGI: > 100 µM
PC-3 prostate
  TGI: > 100 µM
RPMI-8226 leukemia
  TGI: > 100 µM
SF-268 CNS
  TGI: 88.1 µM
SF-295 CNS
  TGI: > 100 µM
SF-539 CNS
  TGI: 34.2 µM
SK-MEL-2 melanoma
  TGI: > 100 µM
SK-MEL-28 melanoma
  TGI: > 100 µM
SK-OV-3 ovarian
  TGI: > 100 µM
SN12C renal
  TGI: 98.6 µM
SNB-19 CNS
  TGI: > 100 µM
SNB-75 CNS
  TGI: > 100 µM
SW-620 colon
  TGI: > 100 µM
T-47D breast
  TGI: 94.5 µM
U251 CNS
  TGI: > 100 µM
UACC-257 melanoma
  TGI: > 100 µM
UACC-62 melanoma
  TGI: 82 µM
UO-31 renal
  TGI: 90.8 µM
